Experiments:
U2OS cells = test: western blotting of caspase-3 activation and γ-H2AX after doxorubicin; format: cell-based
Procedure: FIGS. 9A-9B. […] (FIG. 9A) U2OS cells were treated with increasing concentrations of P7C3-A20 for 2 h prior to exposure to 0.5 μM doxorubicin for another 2 h. Cells were harvested and subjected to western blotting with the DNA damage marker, γ-H2AX. Actin was served as loading control. (FIG. 9B) U2OS cells were treated with P7C3-A20 and doxorubicin for the indicated time. Caspase-3 activation was determined by western blotting. Caspase-3 cleavage was observed when treated with doxorubicin alone at 60 h, but was prevented in the presence of P7C3-A20.
Progress on studies aimed towards resolving the mode of action of P7C3 has been hampered by the fact that we have been limited to studies of drug action in living animals. Our standard assay of neurogenesis requires, under optimal conditions, a one month turn-around from the synthesis of a new derivative to a score for its neuroprotective activity. In efforts to break this logjam, we tested whether P7C3 might have cell-protective activity to any of eight generic toxins.

[1] = tested on: nicotinamide salvage pathway in U2OS cells; test: nicotinamide flux analysis with 14C-labeled nicotinamide (TLC); format: cell-based; conditions: 0.5 μM doxorubicin 48 h, then 6 h 14C-nicotinamide
Procedure: FIGS. 6A-6B. P7C3-A20 enhances the flux of nicotinamide through the salvage pathway. (FIG. 6A) Cells were pre-treated with 0.5 μM doxorubicin for 48 hours, followed by 6 hours treatment with ^14C-nicotinamide in the presence of the indicated amount of P7C3-A20. Metabolites were extracted and analyzed by thin layer chromatography. (FIG. 6B) Quantification of the relative intensities of NAD and NMN from the thin layer chromatogram.
NAMPT is the rate limiting enzyme in the salvage pathway whereby cells sequentially convert nicotinamide into nicotinamide […] mononucleotide (NMN) and NAD (Preiss and Handler, 1958). If active variants of P7C3 indeed bind to the NAMPT dimer in a manner fostering its activity, then these compounds should enhance the flux of nicotinamide through the salvage pathway. To test this hypothesis, ^14C-labeled nicotinamide was administered to cultured U2OS cells. Six hours later, cells were lysed in perchloric acid and cleared by centrifugation so that soluble materials could be separated by thin layer chromatography (TLC) followed by autoradiography.
Logarithmically growing cells cultured in 6-well plates were treated with doxorubicin (0.5 μM) for 48 hours. […] Afterwards, the screen was scanned using the Typhoon scanner, and the ^14C-labeled compounds were quantified using Image J.

COc1cccc(NCC(F)Cn2c3ccc(Br)cc3c3cc(Br)ccc32)c1 (stereo not drawn) [S10]
DNA damage response (phosphorylation of H2AX) (U2OS cells; 0.5 μM doxorubicin): not DNA damage response | doxorubicin-induced apoptosis (caspase-3 activation) (U2OS cells; co-administration with doxorubicin): blocked doxorubicin-induced apoptosis | conversion of radiolabeled nicotinamide into NMN and NAD [1]: enhanced conversion of radiolabeled nicotinamide into NMN and NAD

— patent US9243281B2, “Neuroprotective chemicals and methods for identifying and using same” (Board of Regents of The University of Texas System, priority 2013, dated 2016)
